Test results as given in patent US20250085283A1, “METHOD FOR QUANTIFYING NICOTINAMIDE ADENINE DINUCLEOTIDE (NAD+) OR NICOTINAMIDE MONONUCLEOTIDE (NMN), AND KIT AND FILTER PAPER FOR PERFORMING THE METHOD” (Teijin Limited, priority 2022, published 2025).

Assays:
[1] = Chilled storage stability of NAD+ and NMN in blood spotted on filter paper (DBS, LC-MS/MS); type: physicochemical, human; settings: for Storage stability (mean): vs storage 0 days
Method: A filter paper, to which blood derived from a test subject is added (i.e., corresponding to a filter paper in Step 1 of the present invention), was searched for the optimal one for quantifying NAD+ and NMN when the filter paper with added blood derived from the test subject is stored in the refrigerator for a certain period of time.
From 5 subjects (adult men and women) per test, approximately 120 μL of blood (amount of 2 collection containers of the kit) was sampled by self-collection using an Micro Blood Collection Kit (Micro Blood Science Co., Ltd.), and was left to stand on ice until sample processing. The subjects were fasted on the morning of the sampling day, and samplings were performed around 9:00 am. The test was performed four times in total, with a total of 19 people performing evaluations, excluding one person due to insufficient sample blood volume.
The sampled blood was collected into 1.5 mL microtubes for each subject and mixed by gentle pipetting. Four types of filter papers (Whatman FTA DMPK-A Card/GE healthcare, QIAcard FTA DMPK-B Card/QIAGEN, QIAcard FTA DMPK-C Card/QIAGEN, Whatman 903 Protein saver card/Cytiva) were each spotted with 5 μL of blood (dropped/added) at multiple areas, sealed in a moisture absorption standard pouch (Moisture absorption-kun (registered trademark)/Maruto Sangyo Co., Ltd.), and stored in the refrigerator. Next, after chilled storing the blood-spotted filter paper for 2 days, 2 weeks (14 days or 15 days), or 1 month (30 days), the blood-spotted areas were cut out and collected in a 2 mL microtube. After adding 300 μL of a mixed aqueous solution of internal standard substances (NAD+-d4 and NMN-d4/Toronto Research Chemicals, Inc.) thereto and stirring using a vortex mixer, the mixture was mixed with a micromixer (TOMY MICRO TUBE MIXER MT-400, stirring speed 5) for 30 minutes at room temperature. The blood extract solution was dispensed by each 150 μL portion into a microtube, 300 μL of acetonitrile was added thereto, and the mixture was stirred using a vortex mixer, followed by centrifugation (24,250×g, 10 minutes, 4° C.). After centrifugation, 40 μL of the supernatant was dispensed into a vial and measured by LC-MS/MS.
In contrast, as a sample for initial values, 5 μL of blood was collected into a 2 mL microtube (no spotted filter paper), and 300 μL of a mixed aqueous solution of internal standard substances (NAD-d4 and NMN-d4/Toronto Research Chemicals, Inc.) was added thereto and stirred using a vortex mixer, and then the mixture was mixed using a micromixer (TOMY MICRO TUBE MIXER MT-400, stirring speed 5) for 30 minutes at room temperature. The blood extract solution was dispensed by each 150 μL portion into a microtube, 300 μL of acetonitrile was added thereto, and the mixture was stirred using a vortex mixer, followed by centrifugation (24,250×g, 10 minutes, 4° C.). After centrifugation, 40 μL of the supernatant was dispensed into a vial and measured by LC-MS/MS.

[2] = Room temperature storage stability of NAD+ and NMN in blood spotted on filter paper (DBS, LC-MS/MS); type: physicochemical, human; settings: for Storage stability (mean): vs storage 0 days
Method: A filter paper, to which blood derived from a test subject is added (i.e., corresponding to a filter paper in Step 1 of the present invention), was searched for the optimal one for quantifying NAD+ and NMN when the filter paper with added blood derived from the test subject is stored at room temperature for a certain period of time.
A part of the blood spotted-filter paper prepared in Example 2 was sealed in a moisture absorption standard pouch (Moisture absorption-kun (registered trademark)/Maruto Sangyo Co., Ltd.) and then stored at room temperature. After storage at room temperature for 2 days, 1 week (7 days), or 2 weeks (15 days), the blood-spotted areas were cut out and collected in a 2 mL microtube. After performing the same treatment as in Example 2, measurement by LC-MS/MS was performed under the same conditions as in Example 2.

[3] = human blood on 903 card, chilled storage for 2 weeks
[4] = human blood on 903 card, chilled storage for 2 days
[5] = human blood on DMPK-A card, chilled storage for 1 month
[6] = human blood on DMPK-A card, chilled storage for 2 weeks
[7] = human blood on DMPK-A card, chilled storage for 2 days
[8] = human blood on DMPK-B card, chilled storage for 1 month
[9] = human blood on DMPK-B card, chilled storage for 2 weeks
[10] = human blood on DMPK-B card, chilled storage for 2 days
[11] = human blood on DMPK-C card, chilled storage for 2 weeks
[12] = human blood on DMPK-C card, chilled storage for 2 days
[13] = human blood on 903 card, room temperature storage for 2 days
[14] = human blood on DMPK-A card, room temperature storage for 2 weeks
[15] = human blood on DMPK-A card, room temperature storage for 2 days
[16] = human blood on DMPK-B card, room temperature storage for 1 week
[17] = human blood on DMPK-B card, room temperature storage for 2 weeks
[18] = human blood on DMPK-B card, room temperature storage for 2 days

NC(=O)c1ccc[n+]([C@@H]2O[C@H](COP(=O)([O-])O)[C@@H](O)[C@H]2O)c1 [NMN, nicotinamide mononucleotide]
Storage stability (mean) ([1]; human blood on 903 card, chilled storage for 1 month): 56.3%
Storage stability, Evaluation [1, 3]: Average: (Average (≥50%))
Storage stability (mean) [1, 3]: 64.5%
Storage stability, Evaluation [1, 4]: Average: (Average (≥50%))
Storage stability (mean) [1, 4]: 60.1%
Storage stability, Evaluation [1, 5]: Excellent: (Excellent (≥85%))
Storage stability (mean) [1, 5]: 99.9%
Storage stability, Evaluation [1, 6]: Good: (Good (≥70%))
Storage stability (mean) [1, 6]: 80.6%
Storage stability, Evaluation [1, 7]: Good: (Good (≥70%))
Storage stability (mean) [1, 7]: 73.1%
Storage stability, Evaluation [1, 8]: Good: (Good (≥70%))
Storage stability (mean) [1, 8]: 78.6%
Storage stability, Evaluation [1, 9]: Excellent: (Excellent (≥85%))
Storage stability (mean) [1, 9]: 93.6%
Storage stability, Evaluation [1, 10]: Excellent: (Excellent (≥85%))
Storage stability (mean) [1, 10]: 95.4%
Storage stability, Evaluation [1, 11]: Average: (Average (≥50%))
Storage stability (mean) [1, 11]: 52.9%
Storage stability, Evaluation [1, 12]: Average: (Average (≥50%))
Storage stability (mean) [1, 12]: 68.4%
Storage stability, Evaluation [2, 13]: Good (Good (≥70%))
Storage stability (mean) [2, 13]: 79.8%
Storage stability, Evaluation [2, 14]: Excellent: (Excellent (≥85%))
Storage stability (mean) [2, 14]: 124.2%
Storage stability, Evaluation [2, 15]: Excellent: (Excellent (≥85%))
Storage stability (mean) [2, 15]: 122.7%
Storage stability, Evaluation [2, 16]: Average: (Average (≥50%))
Storage stability (mean) [2, 16]: 69.1%
Storage stability, Evaluation [2, 17]: Average: (Average (≥50%))
Storage stability (mean) [2, 17]: 66.6%
Storage stability, Evaluation [2, 18]: Excellent: (Excellent (≥85%))
Storage stability (mean) [2, 18]: 96.5%
